According to US20220348590A1, “CYCLOOXYGENASE-2 INHIBITORS AND USES THEREOF” (The Board Institute, Inc., priority 2019, published 2022):
Read-outs that look alike come from different tables or passages of the source.

Experiments:
[1] = Mouse Plasma Protein Stability (% Remaining); assay type: in vitro ADME; conditions: average
[2] = Human Microsome Stability; assay type: in vitro ADME; conditions: human microsomes
MDR1 = experiment: MDR1-MDCKII permeability and efflux; assay type: in vitro ADME; conditions: dog, MDCK-MDR1; for Papp A→B: read-out: MDR1-MCKII Papp A-B; for Papp B→A: read-out: MDR1-MCKII Papp B-A
ovine COX-1 (oCOX-1) = molecular target: T1, ovine COX-1 (oCOX-1) (Ovis aries, UniProt P05979); experiment: LCMS-based COX-1 enzymatic inhibition assay (PGE2 quantification); assay type: biochemical
T1 construct: purchased Cayman Chemicals (Ann Arbor, Mich.)
T1 sequence (P05979 25-600): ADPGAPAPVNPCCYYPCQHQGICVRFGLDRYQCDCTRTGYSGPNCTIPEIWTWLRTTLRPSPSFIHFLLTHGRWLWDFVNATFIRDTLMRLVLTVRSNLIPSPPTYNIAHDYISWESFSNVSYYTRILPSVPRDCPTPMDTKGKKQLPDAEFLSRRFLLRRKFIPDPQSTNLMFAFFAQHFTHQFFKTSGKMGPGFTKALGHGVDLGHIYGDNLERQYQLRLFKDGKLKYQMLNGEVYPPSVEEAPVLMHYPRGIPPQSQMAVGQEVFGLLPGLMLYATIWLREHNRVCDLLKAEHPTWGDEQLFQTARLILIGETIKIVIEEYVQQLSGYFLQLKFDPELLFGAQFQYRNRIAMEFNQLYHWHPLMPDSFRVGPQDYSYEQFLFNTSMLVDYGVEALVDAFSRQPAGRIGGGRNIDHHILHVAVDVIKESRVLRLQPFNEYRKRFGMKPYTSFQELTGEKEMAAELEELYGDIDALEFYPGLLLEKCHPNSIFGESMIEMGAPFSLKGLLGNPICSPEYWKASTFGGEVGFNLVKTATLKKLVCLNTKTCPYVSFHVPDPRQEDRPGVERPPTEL
Procedure, shortened: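 PGE2 formed from arachidonic acid (final 5 μM, 2 min) was measured by LC-MS-MS against DMSO controls. Enzyme (oCOX-1 0.1 μg or hCOX2 0.2 μg) with hematin/epinephrine cofactors at pH 8.0 was given 10 min at 37 °C with compound first. Twelve-point curves run three times gave IC50.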

Rat Microsome Stability = assay type: in vitro ADME; conditions: rat microsomes
[3] = mouse brain protein binding (BPB) assay; assay type: in vitro ADME
Method: (§1) We have adapted a previously reported cyclooxygenase enzymatic assay utilizing LCMS quantification of PGE2 as the product of COX-1 and COX2 catalyzed conversion of arachidonic acid to evaluate the binding properties of newly synthesized ligands [Cao, 2011]. These optimized and miniaturized (384-well plates) LCMS-based COX-1 and COX2 enzymatic assays enabled us to quickly evaluate newly synthesized ligands for COX2 binding affinity and selectivity vs COX-1. Using a shorter ligand-enzyme incubation time in the LCMS assay (2 minutes vs 10 minutes) also permitted us to prioritize ligands with faster binding kinetics. Considering the relatively slow on-rate kinetics of known coxibs, due to their 3-step binding mechanism [Marnett, 2009], we believe that optimizing this critical parameter will be key to the successful development of a COX2 PET tracer. Using these enzymatic assays, we have evaluated>200 newly synthesized ligands against COX2 and >20 ligands against COX-1. Another critical property necessary for a good PET radiotracer is to have low non-specific binding (NSB) to increase the free fraction and maximize the signal to noise ratio. This property can be evaluated using in-vitro protein binding assays, and we have now evaluated>50 newly synthesized ligands in mouse, rat and human plasma protein binding (PPB) assays as well as >15 ligands in a mouse brain protein binding (BPB) assay.

[4] = in-vitro protein binding: free fraction / fraction unbound, matrix and species not given; assay type: in vitro ADME; conditions: compared to MC1; comparator not always stated
Method: as §1

[5] = 10 minutes, readout pge2/pge2d4 area ratio, average LLE
[6] = 10 minutes, readout pge2/pge2d4 area ratio, average, read-out: COX1 10 minutes pge2/pge2d4 area ratio Avg. IC50
[7] = 10 minutes, readout pge2 area (counts), average LLE
[8] = 10 minutes, readout pge2 area (counts), average, read-out: COX1 10 minutes pge2 area (counts) Avg. IC50

| Mouse Plasma Protein Stability % Remaining Avg [1] [%] | Human Microsome Stability % Remaining Avg [2] [%] | efflux ratio (MDR1) | Papp A→B (MDR1) [nm/s] | Papp B→A (MDR1) [nm/s] | COX1 10 minutes pge2/pge2d4 area ratio Avg. LLE (ovine COX-1 (oCOX-1); [5]) | IC50 (ovine COX-1 (oCOX-1); [6]) [µM] | COX1 10 minutes pge2 area (counts) Avg. LLE (ovine COX-1 (oCOX-1); [7]) | IC50 (ovine COX-1 (oCOX-1); [8]) [µM] | Rat Microsome Stability % Remaining Avg (Rat Microsome Stability) [%] | fraction unbound [3] | improvement in free fraction (fraction unbound) [4] [fold] | COX1 10 minutes pge2/pge2d4 area ratio Avg. LLE (ovine COX-1 (oCOX-1); 10 minutes, pge2/pge2d4 area ratio, head of this section not shown, inferred) | COX1 10 minutes pge2 area (counts) Avg. LLE (ovine COX-1 (oCOX-1); 10 minutes, pge2 area (counts), head of this section not shown, inferred) | IC50 (ovine COX-1 (oCOX-1); 10 minutes, pge2 area (counts), head of this section not shown, inferred, read-out: COX1 10 minutes pge2 area (counts) Avg. IC50) [µM] | SMILES | IC50 (ovine COX-1 (oCOX-1)) [µM] |
| --- | --- | --- | --- | --- | --- | --- | --- | --- | --- | --- | --- | --- | --- | --- | --- | --- |
| 119.5 | 38 | 0.9 | 337 | 299 | 1.251 | 11.5 | 1.136 | 13.8 |  |  |  |  |  |  | CS(=O)(=O)c1ccc(-c2cccc(OCc3cccs3)n2)cc1 [Compound 1, 2-(4-methanesulfonylphenyl)-6-[(thiophen-2-yl)methoxy]pyridine] |  |
| 99 | 21 |  |  |  | 1.4251 | 40.3 | 1.516 | 32.7 |  |  |  |  |  |  | CS(=O)(=O)c1ccc(-c2cc(F)cc(NCc3ccco3)n2)cc1 [Compound 14] |  |
| 102 | 24 |  |  |  | 1.139 | 39.9 | 1.072 | 46.5 |  |  |  |  |  |  | CS(=O)(=O)c1ccc(-c2cccc(OCc3ccoc3)n2)cc1 [Compound 16] |  |
| 102 |  |  |  |  |  |  | 0.884 |  | 0.2 | 0.012 |  |  |  |  | COc1ccc(NCc2cccs2)nc1-c1ccc(S(C)(=O)=O)cc1 [Compound 17] |  |
| 92.8 |  |  |  |  | 2.582 | 10.4 | 2.539 | 10.9 |  |  |  |  |  |  | CS(=O)(=O)c1ccc(-c2cncc(OCc3cccs3)n2)cc1 [Compound 19] |  |
|  | 36 |  |  |  | 1.391 | 28.7 | 1.134 |  |  |  |  |  |  |  | Cc1occc1CNc1cccc(-c2ccc(S(C)(=O)=O)cc2)n1 [Compound 21] |  |
|  | 11 |  |  |  | 3.122 | 0.323 | 3.085 | 0.417 |  |  |  |  |  |  | CS(=O)(=O)c1ccc(-c2cccc(NCc3ccc(F)o3)n2)cc1 [Compound 23] |  |
| 114.1 | 18 |  |  |  |  | 34.7 |  | 33.4 | 6.9 |  |  |  |  |  | CS(=O)(=O)c1ccc(-c2cccc(NCc3cccs3)n2)cc1 [Compound 24] |  |
|  | 40 |  |  |  | 1.418 | 33.3 | 1.362 | 37.9 |  |  |  |  |  |  | CS(=O)(=O)c1ccc(-c2ccc(F)c(NCc3ccoc3)n2)cc1 [Compound 33] |  |
|  | 48 |  |  |  | 1.4613 | 30.1 | 1.484 | 28.7 |  |  |  |  |  |  | CS(=O)(=O)c1ccc(-c2cc(F)cc(NCc3ccoc3)n2)cc1 [Compound 34] |  |
| 99.2 | 19 |  |  |  | 1.089 | 22.4 | 0.724 |  |  | 0.011 |  |  |  |  | CS(=O)(=O)c1ccc(-c2cccc(/C=C\c3ccoc3)n2)cc1 [Compound 35, 2-[(Z)-2-(furan-3-yl)ethenyl]-6-(4-methanesulfonylphenyl)pyr] |  |
| 106 | 17 | 1 | 685 | 679 |  | 36.4 |  | 29.7 | 11.6 | 0.019 | ~4 |  |  |  | CS(=O)(=O)c1ccc(-c2cccc(NCc3ccco3)n2)cc1 [Compound 36] |  |
| 107.5 | 16 | 0.9 | 508 | 472 | 1.461 | 38.8 |  |  | 8.2 | 0.022 | ~4 |  |  |  | CS(=O)(=O)c1ccc(-c2cccc(NCc3ccoc3)n2)cc1 [Compound 47, N-(furan-3-ylmethyl)-6-(4-(methylsulfonyl)phenyl)pyridin-2-amine] |  |
| 98.9 |  |  |  |  | 1.091 | 32.3 | 0.9785 | 42 |  |  |  |  |  |  | COc1cc(NCc2cccs2)nc(-c2ccc(S(C)(=O)=O)cc2)c1 [Compound 50] |  |
|  | 23.8 | 1.7 | 497 | 838 |  | 9.89 |  |  | 20.3 | 0.02 | 3 | 2.943 | 2.879 | 10.7 | CS(=O)(=O)c1ccc(-c2cncc(NCc3cccs3)n2)cc1 [Compound 98] |  |

| SMILES | Mouse Plasma Protein Stability % Remaining Avg [1] [%] | Human Microsome Stability % Remaining Avg [2] [%] | efflux ratio (MDR1) | Papp A→B (MDR1) [nm/s] | Papp B→A (MDR1) [nm/s] | COX1 10 minutes pge2/pge2d4 area ratio Avg. LLE (ovine COX-1 (oCOX-1); [5]) | IC50 (ovine COX-1 (oCOX-1); [6]) [µM] | COX1 10 minutes pge2 area (counts) Avg. LLE (ovine COX-1 (oCOX-1); [7]) | IC50 (ovine COX-1 (oCOX-1); [8]) [µM] | Rat Microsome Stability % Remaining Avg (Rat Microsome Stability) [%] | fraction unbound [3] | improvement in free fraction (fraction unbound) [4] [fold] | COX1 10 minutes pge2/pge2d4 area ratio Avg. LLE (ovine COX-1 (oCOX-1); 10 minutes, pge2/pge2d4 area ratio, head of this section not shown, inferred) | COX1 10 minutes pge2 area (counts) Avg. LLE (ovine COX-1 (oCOX-1); 10 minutes, pge2 area (counts), head of this section not shown, inferred) | IC50 (ovine COX-1 (oCOX-1); 10 minutes, pge2 area (counts), head of this section not shown, inferred, read-out: COX1 10 minutes pge2 area (counts) Avg. IC50) [µM] | IC50 (ovine COX-1 (oCOX-1)) [µM] |
| --- | --- | --- | --- | --- | --- | --- | --- | --- | --- | --- | --- | --- | --- | --- | --- | --- |
| CS(=O)(=O)c1ccc(-c2nc(NCc3cccs3)cc3ccoc23)cc1 [Compound 2] | 108 | 27 |  |  |  | −0.046 |  | −0.02512 | 49.6 |  |  |  |  |  |  | 52 |
| CS(=O)(=O)c1ccc(-c2ccc(F)c(NCc3ccco3)n2)cc1 [Compound 15] |  | 45.5 |  |  |  | 1.314 |  | 1.404 | 34.4 |  |  |  |  |  |  | 52 |
| COc1ncc(NCc2cccs2)nc1-c1ccc(S(C)(=O)=O)cc1 [Compound 29] | 93.2 | 24 |  |  |  | 1.794 |  | 3.31 | 0.0484 | 2.2 |  |  |  |  |  | 52 |
| COc1ncc(NCc2ccoc2)nc1-c1ccc(S(C)(=O)=O)cc1 [Compound 44] | 105.7 |  | 1.2 | 396 | 472 | 2.274 |  | 2.41 | 38.1 | 5.3 |  |  |  |  |  | 52 |
